Experiments:
[1] = tested on: Capan-1 (pancreas, adenocarcinoma) cells; assay: Cell viability assay, CellTiter-Glo (Example 21); type: cell-based, human; details: 72 h treatment
Method: (§1) Effect of the selected compounds on cancer cell viability was measured via CellTiter-Glo® luminescent cell viability assay (Promega, Madison, WI, USA) according to the manufacturer's instructions. Cells were plated onto a flat-bottomed, white 96 well plate (BRANDplates®, cat. no.: 781965). Density of the seeded cells was optimized based on their size and growth rate, as the follows: Panc-1:750 cells/well; DU 145, PC-3, Capan-1, MIA PaCa-2, SCC-25, FaDu and EBC-1: 1000 cells/well; LNCaP, Detroit 562, MDA-MB-231 and MDA-MB-453 1500 cells/well. […] After the treatment, the luminescence signal was recorded using a microplate reader (BioTek Synergy 2 Multi-Mode Reader, BioTek, Winooski, VT, USA). Dose-response curves were generated by GraphPad Prism 8.4.2. software using a non-linear regression model (variable slope, four parameters), (see FIGS. 12-51).

[2] = tested on: Panc-1 (pancreas, carcinoma) cells; assay: Cell viability assay, CellTiter-Glo (Example 21); type: cell-based, human; details: 72 h treatment
Method: as §1

[3] = tested on: PC-3 (prostate, adenocarcinoma) cells; assay: Cell viability assay, CellTiter-Glo (Example 21); type: cell-based, human; details: 72 h treatment
Method: as §1

[4] = tested on: SCC-25 (tongue, squamous cell carcinoma) cells; assay: Cell viability assay, CellTiter-Glo (Example 21); type: cell-based, human; details: 72 h treatment
Method: as §1

[5] = tested on: LNCaP (prostate, carcinoma) cells; assay: Cell viability assay, CellTiter-Glo (Example 21); type: cell-based, human; details: 72 h
Method: as §1

[6] = tested on: MDA-MB-231 (breast, adenocarcinoma) cells; assay: Cell viability assay, CellTiter-Glo (Example 21); type: cell-based, human; details: 72 h treatment
Method: as §1

[7] = tested on: Detroit 562 (pharynx, carcinoma) cells; assay: Cell viability assay, CellTiter-Glo (Example 21); type: cell-based, human; details: 72 h treatment
Method: as §1

[8] = tested on: MIA PaCa-2 (pancreas, carcinoma) cells; assay: Cell viability assay, CellTiter-Glo (Example 21); type: cell-based, human; details: 72 h treatment
Method: as §1

[9] = tested on: FaDu (pharynx, squamous cell carcinoma) cells; assay: Cell viability assay, CellTiter-Glo (Example 21); type: cell-based, human; details: 72 h treatment
Method: as §1

[10] = tested on: EBC-1 (lung, squamous cell carcinoma) cells; assay: Cell viability assay, CellTiter-Glo (Example 21); type: cell-based, human; details: 72 h treatment
Method: as §1

[11] = tested on: MDA-MB-453 (breast, carcinoma) cells; assay: Cell viability assay, CellTiter-Glo (Example 21); type: cell-based, human; details: 72 h treatment
Method: as §1

[12] = tested on: DU 145 (prostate, carcinoma) cells; assay: Cell viability assay, CellTiter-Glo (Example 21); type: cell-based, human; details: 72 h
Method: as §1

[13] = tested on: H2228 lung cancer cell line; assay: High-throughput screening, CellTiter-Glo cell viability assay at 100 nM; type: cell-based, human; details: Homo sapiens, NCI-H2228, HTS, compounds at 100 nM, 72 h, read-out: cytotoxicity expressed in IC50, H2228 (results of High throughput screening)
[14] = tested on: EBC-1 lung cancer cell line; assay: as above; type: cell-based, human; details: Homo sapiens, EBC-1, HTS, compounds at 100 nM, 72 h, read-out: cytotoxicity expressed in IC50, EBC-1 (results of High throughput screening)
[15] = tested on: PANC-1 (human pancreatic carcinoma) cells; assay: Impedance-based viability assay (xCELLigence SP), long treatment; type: cell-based; details: 72 h, read-out: cytotoxicity expressed in IC50, PANC-1
Text: (Gibco®/Invitrogen Corporation, New York, NY, USA).
Data obtained from each experiment represent mathematical averages.

O=C1C2=C(CCN(Cc3cccc(F)c3)C2)N2CCN=C2N1Cc1ccc(C(F)(F)F)cc1 [I/3, reference compound]
Capan-1 (pancreas, adenocarcinoma) cell viability (% of control) ([1]; 3.7 nM): 102.7 ± 6.9 % of control | Capan-1 (pancreas, adenocarcinoma) cell viability (% of control) ([1]; 11.1 nM): 101.5 ± 5.5 % of control | Capan-1 (pancreas, adenocarcinoma) cell viability (% of control) ([1]; 100 nM): 38.7 ± 2.8 % of control | Capan-1 (pancreas, adenocarcinoma) cell viability (% of control) ([1]; 300 nM): 33.0 ± 2.2 % of control | Panc-1 (pancreas, carcinoma) cell viability (% of control) ([2]; 3.7 nM): 105.8 ± 4.0 % of control | Panc-1 (pancreas, carcinoma) cell viability (% of control) ([2]; 11.1 nM): 105.7 ± 4.2 % of control | Panc-1 (pancreas, carcinoma) cell viability (% of control) ([2]; 100 nM): 59.9 ± 17.3 % of control | Panc-1 (pancreas, carcinoma) cell viability (% of control) ([2]; 300 nM): 53.9 ± 6.5 % of control | PC-3 (prostate, adenocarcinoma) cell viability (% of control) ([3]; 3.7 nM): 100.8 ± 4.0 % of control | PC-3 (prostate, adenocarcinoma) cell viability (% of control) ([3]; 11.1 nM): 110.2 ± 4.1 % of control | PC-3 (prostate, adenocarcinoma) cell viability (% of control) ([3]; 100 nM): 34.7 ± 1.0 % of control | PC-3 (prostate, adenocarcinoma) cell viability (% of control) ([3]; 300 nM): 32.3 ± 2.6 % of control | SCC-25 (tongue, squamous cell carcinoma) cell viability (% of control) ([4]; 3.7 nM): 101.0 ± 4.9 % of control | SCC-25 (tongue, squamous cell carcinoma) cell viability (% of control) ([4]; 11.1 nM): 95.1 ± 5.1 % of control | SCC-25 (tongue, squamous cell carcinoma) cell viability (% of control) ([4]; 100 nM): 34.9 ± 3.9 % of control | SCC-25 (tongue, squamous cell carcinoma) cell viability (% of control) ([4]; 300 nM): 33.1 ± 1.7 % of control | LNCaP cell viability ([5]; 3.7 nM): 98.7 ± 7.4 % of control | LNCaP cell viability ([5]; 11.1 nM): 95.0 ± 7.4 % of control | LNCaP cell viability ([5]; 100 nM): 13.8 ± 1.7 % of control | LNCaP cell viability ([5]; 300 nM): 12.7 ± 1.2 % of control | MDA-MB-231 (breast, adenocarcinoma) cell viability (% of control) ([6]; 3.7 nM): 101.4 ± 1.4 % of control | MDA-MB-231 (breast, adenocarcinoma) cell viability (% of control) ([6]; 11.1 nM): 99.8 ± 1.8 % of control | MDA-MB-231 (breast, adenocarcinoma) cell viability (% of control) ([6]; 100 nM): 56.5 ± 3.4 % of control | MDA-MB-231 (breast, adenocarcinoma) cell viability (% of control) ([6]; 300 nM): 53.7 ± 3.1 % of control | Detroit 562 (pharynx, carcinoma) cell viability (% of control) ([7]; 3.7 nM): 99.5 ± 8.4 % of control | Detroit 562 (pharynx, carcinoma) cell viability (% of control) ([7]; 11.1 nM): 44.3 ± 11.0 % of control | Detroit 562 (pharynx, carcinoma) cell viability (% of control) ([7]; 100 nM): 28.9 ± 5.3 % of control | Detroit 562 (pharynx, carcinoma) cell viability (% of control) ([7]; 300 nM): 28.7 ± 4.1 % of control | MIA PaCa-2 (pancreas, carcinoma) cell viability (% of control) ([8]; 3.7 nM): 107.1 ± 16.4 % of control | MIA PaCa-2 (pancreas, carcinoma) cell viability (% of control) ([8]; 11.1 nM): 105.2 ± 3.4 % of control | MIA PaCa-2 (pancreas, carcinoma) cell viability (% of control) ([8]; 100 nM): 17.5 ± 7.9 % of control | MIA PaCa-2 (pancreas, carcinoma) cell viability (% of control) ([8]; 300 nM): 17.2 ± 7.5 % of control | FaDu (pharynx, squamous cell carcinoma) cell viability (% of control) ([9]; 3.7 nM): 101.6 ± 3.4 % of control | FaDu (pharynx, squamous cell carcinoma) cell viability (% of control) ([9]; 11.1 nM): 100.9 ± 5.9 % of control | FaDu (pharynx, squamous cell carcinoma) cell viability (% of control) ([9]; 100 nM): 26.2 ± 7.9 % of control | FaDu (pharynx, squamous cell carcinoma) cell viability (% of control) ([9]; 300 nM): 22.4 ± 5.9 % of control | EBC-1 (lung, squamous cell carcinoma) cell viability (% of control) ([10]; 3.7 nM): 97.8 ± 4.0 % of control | EBC-1 (lung, squamous cell carcinoma) cell viability (% of control) ([10]; 11.1 nM): 96.3 ± 1.4 % of control | EBC-1 (lung, squamous cell carcinoma) cell viability (% of control) ([10]; 100 nM): 25.1 ± 0.2 % of control | EBC-1 (lung, squamous cell carcinoma) cell viability (% of control) ([10]; 300 nM): 22.2 ± 0.1 % of control | MDA-MB-453 (breast, carcinoma) cell viability (% of control) ([11]; 3.7 nM): 110.3 ± 7.7 % of control | MDA-MB-453 (breast, carcinoma) cell viability (% of control) ([11]; 11.1 nM): 97.0 ± 13.3 % of control | MDA-MB-453 (breast, carcinoma) cell viability (% of control) ([11]; 100 nM): 33.2 ± 2.0 % of control | MDA-MB-453 (breast, carcinoma) cell viability (% of control) ([11]; 300 nM): 29.8 ± 1.5 % of control | DU 145 cell viability ([12]; 3.7 nM): 102.0 ± 3.5 % of control | DU 145 cell viability ([12]; 11.1 nM): 95.9 ± 5.1 % of control | DU 145 cell viability ([12]; 100 nM): 7.1 ± 1.6 % of control | DU 145 cell viability ([12]; 300 nM): 7.2 ± 1.2 % of control | IC50 [13]: < 100 nM | IC50 [14]: < 100 nM | IC50 [15]: 44 nM

Source: US20230295162A1 (EÖTVÖS LORÁND TUDOMÁNYEGYETEM, priority 2020, published 2023)
